According to article PMC3443605 (Journal of medicinal chemistry, 2012):
pEC50, pKi: −log10 of the molar value. “Also recorded” adds a separate entry of the source. One block for each compound: values may come before it.

Tests used:
[1] = target: T1, D2L receptors (Homo sapiens, UniProt P14416); assay: D2R radioligand binding assay
Target sequence in this assay (P14416 whole entry): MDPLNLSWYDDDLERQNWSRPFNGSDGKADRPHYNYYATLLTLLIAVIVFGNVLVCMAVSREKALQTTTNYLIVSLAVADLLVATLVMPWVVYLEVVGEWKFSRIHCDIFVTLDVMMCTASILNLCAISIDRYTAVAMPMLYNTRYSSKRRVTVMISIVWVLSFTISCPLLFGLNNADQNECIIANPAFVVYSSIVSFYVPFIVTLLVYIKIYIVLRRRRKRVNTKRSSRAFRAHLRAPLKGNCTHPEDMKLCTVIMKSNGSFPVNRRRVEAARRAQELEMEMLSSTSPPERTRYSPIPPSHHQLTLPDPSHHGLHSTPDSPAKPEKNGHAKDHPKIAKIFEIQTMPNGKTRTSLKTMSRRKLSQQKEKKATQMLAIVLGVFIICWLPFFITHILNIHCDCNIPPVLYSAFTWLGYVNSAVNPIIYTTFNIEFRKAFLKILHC

[2] = target: T1, D2L receptors; assay: cell-based; format: cell-based
Target sequence in this assay (P14416 whole entry, added parts left off): as the sequence (P14416 whole entry) above
Target sequence in this assay (P32121 whole entry partner): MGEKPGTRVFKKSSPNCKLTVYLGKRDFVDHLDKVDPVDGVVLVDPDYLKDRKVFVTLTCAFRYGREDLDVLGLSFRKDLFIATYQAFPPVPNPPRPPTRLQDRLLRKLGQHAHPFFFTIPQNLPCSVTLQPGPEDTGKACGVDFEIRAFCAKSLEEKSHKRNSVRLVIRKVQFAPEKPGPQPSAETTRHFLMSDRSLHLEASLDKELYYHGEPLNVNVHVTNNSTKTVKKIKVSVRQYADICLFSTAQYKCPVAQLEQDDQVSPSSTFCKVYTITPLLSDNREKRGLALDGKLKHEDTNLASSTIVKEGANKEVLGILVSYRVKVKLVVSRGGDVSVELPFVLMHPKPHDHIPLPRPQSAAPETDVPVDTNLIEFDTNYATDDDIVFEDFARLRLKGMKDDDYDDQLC

[3] = cited from earlier work
[4] = tested on: wild-type mice; assay: PCP-induced hyperlocomotion in wild-type mice; format: in vivo, mouse; settings: 2 mg/kg i.p., 30 min before 6 mg/kg PCP i.p.
[5] = tested on: β-arrestin-2 knockout mice; assay: PCP-induced hyperlocomotion in β-arrestin-2 knockout mice; format: in vivo, mouse; settings: 2 mg/kg i.p., 30 min before 6 mg/kg PCP i.p.
[6] = target: D1 receptor (Homo sapiens, UniProt P21728); assay: PDSP radioligand binding assay, D1; settings: Table S1
[7] = target: D5 receptor (Homo sapiens, UniProt P21918); assay: PDSP radioligand binding assay, D5; settings: Table S1
[8] = target: D3 receptor (Homo sapiens, UniProt P35462); assay: PDSP radioligand binding assay, D3; settings: Table S1
[9] = target: T2, D4 receptor (Homo sapiens, UniProt P21917); assay: PDSP radioligand binding assay, D4; settings: Table S1
T2 sequence (P21917 1-419): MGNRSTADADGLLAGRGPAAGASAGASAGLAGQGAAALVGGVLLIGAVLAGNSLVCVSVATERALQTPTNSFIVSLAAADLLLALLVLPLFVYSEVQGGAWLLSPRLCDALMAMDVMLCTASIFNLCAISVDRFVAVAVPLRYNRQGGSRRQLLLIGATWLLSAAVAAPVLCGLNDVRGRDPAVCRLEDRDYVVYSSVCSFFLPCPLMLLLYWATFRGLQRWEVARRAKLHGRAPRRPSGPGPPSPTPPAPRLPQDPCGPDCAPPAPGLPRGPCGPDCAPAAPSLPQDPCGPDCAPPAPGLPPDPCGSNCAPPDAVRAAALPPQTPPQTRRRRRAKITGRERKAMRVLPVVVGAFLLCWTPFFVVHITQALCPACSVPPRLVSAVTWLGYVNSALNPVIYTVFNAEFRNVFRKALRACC

[10] = tested on: wild-type mice; settings: cited from earlier work
[11] = tested on: β-arrestin-2 knockout mice; settings: cited from earlier work
[12] = tested on: wild-type mice; settings: cited from earlier work; remark: listed apart in the source

D5 receptor, sequence (P21918 whole entry): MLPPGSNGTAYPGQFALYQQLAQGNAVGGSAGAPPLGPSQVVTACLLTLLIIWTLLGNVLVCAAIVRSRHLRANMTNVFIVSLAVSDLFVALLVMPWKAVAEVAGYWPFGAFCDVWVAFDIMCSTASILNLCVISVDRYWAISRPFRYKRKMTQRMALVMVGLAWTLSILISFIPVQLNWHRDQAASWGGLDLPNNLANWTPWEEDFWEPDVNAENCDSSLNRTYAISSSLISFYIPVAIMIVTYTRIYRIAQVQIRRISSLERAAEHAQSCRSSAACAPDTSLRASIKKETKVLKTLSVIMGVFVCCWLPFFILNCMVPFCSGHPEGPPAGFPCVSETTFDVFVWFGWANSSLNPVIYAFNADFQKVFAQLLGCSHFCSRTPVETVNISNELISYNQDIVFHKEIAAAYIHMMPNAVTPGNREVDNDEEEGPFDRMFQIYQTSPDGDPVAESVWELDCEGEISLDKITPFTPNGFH
D1 receptor, sequence (P21728 whole entry): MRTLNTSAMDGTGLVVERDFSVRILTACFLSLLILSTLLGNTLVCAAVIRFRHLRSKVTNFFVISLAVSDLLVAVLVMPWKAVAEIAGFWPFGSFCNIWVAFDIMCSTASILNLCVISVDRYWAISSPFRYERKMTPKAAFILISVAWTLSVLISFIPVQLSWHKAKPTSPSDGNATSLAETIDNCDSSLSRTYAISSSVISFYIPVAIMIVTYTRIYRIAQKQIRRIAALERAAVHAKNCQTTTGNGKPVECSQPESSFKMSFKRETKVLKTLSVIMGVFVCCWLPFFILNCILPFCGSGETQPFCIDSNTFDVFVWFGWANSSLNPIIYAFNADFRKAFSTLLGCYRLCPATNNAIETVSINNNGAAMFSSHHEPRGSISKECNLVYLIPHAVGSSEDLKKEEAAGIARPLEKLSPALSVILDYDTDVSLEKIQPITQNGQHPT
D3 receptor, sequence (P35462 whole entry): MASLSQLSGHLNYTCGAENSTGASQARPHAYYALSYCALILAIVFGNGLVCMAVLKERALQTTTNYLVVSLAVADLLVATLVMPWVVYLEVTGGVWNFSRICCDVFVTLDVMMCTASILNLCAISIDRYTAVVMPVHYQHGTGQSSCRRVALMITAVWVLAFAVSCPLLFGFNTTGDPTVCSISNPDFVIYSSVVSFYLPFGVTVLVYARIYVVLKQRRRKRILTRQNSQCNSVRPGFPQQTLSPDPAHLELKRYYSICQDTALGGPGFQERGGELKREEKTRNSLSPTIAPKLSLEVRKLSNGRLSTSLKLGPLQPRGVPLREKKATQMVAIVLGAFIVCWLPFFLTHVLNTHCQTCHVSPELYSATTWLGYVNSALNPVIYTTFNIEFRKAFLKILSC

Compound: O=C1CCc2ccc(OC[C@@H]3C[C@H]3CN3CCN(c4cccc(Cl)c4Cl)CC3)cc2N1 (relative stereo) [Compound 24, Trans-7-((2-((4-(2,3-dichlorophenyl)piperazin-1-yl)methyl)cyclopropyl)methoxy)-3,4-dihydroquinolin-2(1H)-one]
pKi [1]: 6.63
pEC50 [2]: 5.90

Compound: O=C1CCc2ccc(OCCCCN3CCN(c4cccc(Cl)c4Cl)CC3)cc2N1 [Compound 1, aripiprazole]
oral bioavailability [3]: high

Compound: CC(C)Oc1ccccc1N1CCN(CCCCOc2ccc3c(c2)NC(=O)CC3)CC1 [Compound 4, 7-(4-(4-(2-Isopropoxyphenyl)piperazin-1-yl)butoxy)-3,4-dihydroquinolin-2(1H)-one]
potency at activating β-arrestin versus Gi signaling [2]: about 10 fold

binding affinity to D1 receptor [6]: low affinities
binding affinity to D5 receptor [7]: low affinities
Compound: O=C1CCc2ccc(OCCCCN3CCCN(c4cccc(Cl)c4Cl)CC3)cc2N1 [Compound 19]
effect on PCP-induced hyperlocomotion, wild-type mice [4]: markedly inhibited
antipsychotic-like activity (PCP-induced hyperlocomotion), β-arrestin-2 knockout mice [5]: neither compound affected; also recorded: completely abolished

Compound: Clc1cccc(C2CCN(CCCCOc3ccc4scnc4c3)CC2)c1Cl [Compound 35, 5-(4-(4-(2,3-Dichlorophenyl)piperidin-1-yl)butoxy)benzo[d]thiazole]
binding affinity to D2 receptor ([1]; Table S1): high affinities
effect on PCP-induced hyperlocomotion, wild-type mice [4]: significantly reduced
antipsychotic-like activity (PCP-induced hyperlocomotion), β-arrestin-2 knockout mice [5]: neither compound affected
binding affinity to D1 receptor [6]: low affinities
binding affinity to D3 receptor [8]: high affinities
binding affinity to D4 receptor [9]: high affinities
binding affinity to D5 receptor [7]: low affinities

Compound: Clc1cccc(C2CCN(CCCOc3ccc4scnc4c3)CC2)c1Cl [Compound 36]
antipsychotic drug-like activities in wild-type mice [10]: robust
antipsychotic drug-like activities in β-arrestin-2 knockout mice [11]: significantly attenuated or completely abolished
catalepsy in wild-type mice [12]: did not induce catalepsy

Compound: O=C1CCc2ccc(OCCCCN3CCCN(c4cccc(Cl)c4Cl)CC3)nc2N1 [Compound 44]
antipsychotic drug-like activities in wild-type mice [10]: robust
antipsychotic drug-like activities in β-arrestin-2 knockout mice [11]: significantly attenuated or completely abolished
catalepsy in wild-type mice [12]: did not induce catalepsy
